Consider 9 molecules from patent US11331369B2, “Endoparasitic depsipeptides” (Zoetis Services LLC, priority 2017, dated 2022).

What all share (format): cell-based
For experiment [1], the system named is microfilariae of Dirofilaria immitis. The experiment is described as follows: Dirofilaria immitis, Microfilaria (DiMF) In vitro Assay. The settings on record: 72 h, read-out: DiMF Minimum Effective Dose (MED), approximately 72 hours incubation, microfilariae assessed for survival or paralysis.
Experiment [2] relates to third stage larvae of Haemonchus contortus. Kind of experiment: Haemonchus contortus L3 (HcL3) Assay. The settings on record: 96 h, read-out: HcL3 Minimum Effective Dose (MED).
The subject of experiment [3] is 4th stage larvae (L4) of Dirofilaria immitis. Kind of experiment: Dirofilaria immitis, L4 Stage (DiL4) In Vitro Assay. The note with it: Dirofilaria immitis, 72 h, read-out: DiL4 Minimum Effective Dose (MED), approximately 72 hours incubation; L4 larvae assessed for survival or paralysis.

With `CC(C)C[C@H]1C(=O)O[C@H](Cc2ccc(Cn3cc(Br)cn3)cc2)C(=O)N(C)[C@@H](CC(C)C)C(=O)O[C@H](C)C(=O)N(C)[C@@H](CC(C)C)C(=O)O[C@H](Cc2ccc(Cn3cccn3)cc2)C(=O)N(C)[C@@H](CC(C)C)C(=O)O[C@H](C)C(=O)N1C` [Example 1a-16, (3S,6R,9S,12R,15S,18R,21S,24R)-6-(4-((1H-pyrazol-1-yl)methyl)benzyl)-18-(4-((4-bromo-1H-pyrazol-1-yl)methyl)benzyl)-3,9,15,21-tetraisobutyl-4,10,12,16,22,24-hexamethyl-1,7,13,19-tetraoxa-4,10,16,22-tetraazacyclotetracosan-2,5,8,11,14,17,20,23-octaone], the minimal effective concentration in experiment [1] lay within 0.001 to 0.01 µM; in experiment [2], 1 to 10 µM; in experiment [3], 0.0001 to 0.001 µM.

As for `Cc1cnn(Cc2ccc(C[C@H]3OC(=O)[C@H](CC(C)C)N(C)C(=O)[C@@H](C)OC(=O)[C@H](CC(C)C)N(C)C(=O)[C@@H](Cc4ccc(Cn5cc(I)cn5)cc4)OC(=O)[C@H](CC(C)C)N(C)C(=O)[C@@H](C)OC(=O)[C@H](CC(C)C)N(C)C3=O)cc2)c1` [Example 1a-20, (3S,6R,9S,12R,15S,18R,21S,24R)-6-(4-((4-iodo-1H-pyrazol-1-yl)methyl)benzyl)-3,9,15,21-tetraisobutyl-4,10,12,16,22,24-hexamethyl-18-(4-((4-methyl-1H-pyrazol-1-yl)methyl)benzyl)-1,7,13,19-tetraoxa-4,10,16,22-tetraazacyclotetracosan-2,5,8,11,14,17,20,23-octaone], the minimal effective concentration in experiment [1] was in the range of 0.001 to 0.01 µM; in experiment [2], 1 to 10 µM; in experiment [3], 0.0001 to 0.001 µM.

`CC(C)C[C@H]1C(=O)O[C@H](Cc2ccc(Cn3cc(I)cn3)cc2)C(=O)N(C)[C@@H](CC(C)C)C(=O)O[C@H](C)C(=O)N(C)[C@@H](CC(C)C)C(=O)O[C@H](Cc2ccc(Cn3cccn3)cc2)C(=O)N(C)[C@@H](CC(C)C)C(=O)O[C@H](C)C(=O)N1C` [Example 1a-21, (3S,6R,9S,12R,15S,18R,21S,24R)-6-(4-((1H-pyrazol-1-yl)methyl)benzyl)-18-(4-((4-iodo-1H-pyrazol-1-yl)methyl)benzyl)-3,9,15,21-tetraisobutyl-4,10,12,16,22,24-hexamethyl-1,7,13,19-tetraoxa-4,10,16,22-tetraazacyclotetracosan-2,5,8,11,14,17,20,23-octaone]: the minimal effective concentration lay in the range of 0.001 to 0.01 µM in experiment [1], 1 to 10 µM in experiment [2] and 0.0001 to 0.001 µM in experiment [3].

For the molecule `CC(C)C[C@H]1C(=O)O[C@H](Cc2ccc(Cn3nccc3C(F)(F)F)cc2)C(=O)N(C)[C@@H](CC(C)C)C(=O)O[C@H](C)C(=O)N(C)[C@@H](CC(C)C)C(=O)O[C@H](Cc2ccc(Cn3ccc(C(F)(F)F)n3)cc2)C(=O)N(C)[C@@H](CC(C)C)C(=O)O[C@H](C)C(=O)N1C` [Example 1a-26, (3S,6R,9S,12R,15S,18R,21S,24R)-3,9,15,21-tetraisobutyl-4,6,10,16,18,22-hexamethyl-12-(4-((3-(trifluoromethyl)-1H-pyrazol-1-yl)methyl)benzyl)-24-(4-((5-(trifluoromethyl)-1H-pyrazol-1-yl)methyl)benzyl)-1,7,13,19-tetraoxa-4,10,16,22-tetraazacyclotetracosan-2,5,8,11,14,17,20,23-octaone], the minimal effective concentration in experiment [1] is 0.01 to 0.1 µM; in experiment [2], 1 to 10 µM; in experiment [3], 0.0001 to 0.001 µM.

In the case of `CC(C)C[C@H]1C(=O)O[C@H](Cc2ccc(Cn3nccc3Br)cc2)C(=O)N(C)[C@@H](CC(C)C)C(=O)O[C@H](C)C(=O)N(C)[C@@H](CC(C)C)C(=O)O[C@H](Cc2ccc(Cn3ccc(Br)n3)cc2)C(=O)N(C)[C@@H](CC(C)C)C(=O)O[C@H](C)C(=O)N1C` [Example 1a-31, (3S,6R,9S,12R,15S,18R,21S,24R)-6-(4-((3-bromo-1H-pyrazol-1-yl)methyl)benzyl)-18-(4-((5-bromo-1H-pyrazol-1-yl)methyl)benzyl)-3,9,15,21-tetraisobutyl-4,10,12,16,22,24-hexamethyl-1,7,13,19-tetraoxa-4,10,16,22-tetraazacyclotetracosan-2,5,8,11,14,17,20,23-octaone], the minimal effective concentration was 0.01 to 0.1 µM in experiment [1], 1 to 10 µM in experiment [2] and 0.0001 to 0.001 µM in experiment [3].

Take `CC(C)C[C@H]1C(=O)O[C@H](Cc2ccc(Cn3cc(Cl)cn3)cc2)C(=O)N(C)[C@@H](CC(C)C)C(=O)O[C@H](C)C(=O)N(C)[C@@H](CC(C)C)C(=O)O[C@H](Cc2ccc(Cn3cc(Cl)cn3)cc2)C(=O)N(C)[C@@H](CC(C)C)C(=O)O[C@H](C)C(=O)N1C` [Example 1b-35, (3S,6R,9S,12R,15S,18R,21S,24R)-6,18-bis(4-((4-chloro-1H-pyrazol-1-yl)methyl)benzyl)-3,9,15,21-tetraisobutyl-4,10,12,16,22,24-hexamethyl-1,7,13,19-tetraoxa-4,10,16,22-tetraazacyclotetracosan-2,5,8,11,14,17,20,23-octaone]: the results for the minimal effective concentration in experiment [1], in experiment [2] and in experiment [3] were 0.001 to 0.01 µM, 10 to 100 µM and 0.0001 to 0.001 µM, respectively.

As to `CC(C)C[C@H]1C(=O)O[C@H](Cc2ccc(Cn3ncnc3CC3CC3)cc2)C(=O)N(C)[C@@H](CC(C)C)C(=O)O[C@H](C)C(=O)N(C)[C@@H](CC(C)C)C(=O)O[C@H](Cc2ccc(Cn3ncnc3CC3CC3)cc2)C(=O)N(C)[C@@H](CC(C)C)C(=O)O[C@H](C)C(=O)N1C` [Example 9-55, (3S,6R,9S,12R,15S,18R,21S,24R)-6,18-bis(4-((5-(cyclopropylmethyl)-1H-1,2,4-triazol-1-yl)methyl)benzyl)-3,9,15,21-tetraisobutyl-4,10,12,16,22,24-hexamethyl-1,7,13,19-tetraoxa-4,10,16,22-tetraazacyclotetracosan-2,5,8,11,14,17,20,23-octaone], the minimal effective concentration in experiment [2] is no more than 1 µM; in experiment [3] it was 0.0001 to 0.001 µM.

For `CC(C)C[C@H]1C(=O)O[C@H](Cc2ccc(Cn3cccc3C#N)cc2)C(=O)N(C)[C@@H](CC(C)C)C(=O)O[C@H](C)C(=O)N(C)[C@@H](CC(C)C)C(=O)O[C@H](Cc2ccccc2)C(=O)N(C)[C@@H](CC(C)C)C(=O)O[C@H](C)C(=O)N1C` [Example 10-13, 1-[[4-[[(2R,5S,8R,11S,14R,17S,20R,23S)-14-benzyl-5,11,17,23-tetraisobutyl-4,8,10,16,20,22-hexamethyl-3,6,9,12,15,18,21,24-octaoxo-1,7,13,19-tetraoxa-4,10,16,22-tetrazacyclotetracos-2-yl]methyl]phenyl]methyl]pyrrole-2-carbonitrile], the minimal effective concentration in experiment [2] lay in the range of 1 to 10 µM; in experiment [3] it was 0.0001 to 0.001 µM.

For `CC(C)C[C@H]1C(=O)O[C@H](Cc2ccc(Cn3c(C#N)ccc3C#N)cc2)C(=O)N(C)[C@@H](CC(C)C)C(=O)O[C@H](C)C(=O)N(C)[C@@H](CC(C)C)C(=O)O[C@H](Cc2ccccc2)C(=O)N(C)[C@@H](CC(C)C)C(=O)O[C@H](C)C(=O)N1C` [Example 10-31, 1-(4-(((2R,5S,8R,11S,14R,17S,20R,23S)-14-benzyl-5,11,17,23-tetraisobutyl-4,8,10,16,20,22-hexamethyl-3,6,9,12,15,18,21,24-octaoxo-1,7,13,19-tetraoxa-4,10,16,22-tetraazacyclotetracosan-2-yl)methyl)benzyl)-1H-pyrrole-2,5-dicarbonitrile], the figures for the minimal effective concentration in experiment [2] and in experiment [3] were 1 to 10 µM and no more than 0.0001 µM, respectively.
